Results on six compounds are retold here after patent US10202371B2, “Oxazolidin-2-one-pyrimidine derivatives and the use thereof as phosphatidylinositol-3-kinase inhibitors” (Novartis AG, priority 2012, dated 2019).

The target in the test is human PI3Kdelta p110 catalytic subunit (Rat-1 cells) (Homo sapiens (Human), UniProt O00329). The experiment in a line: Cellular assay PI3Kdelta, p-Akt(S473) SureFire in Rat-1_PI3Kdelta cells. The class given is cell-based. As to conditions: p-AKT(Ser473), 1 h treatment; read-out: Rat1-PI3Kd/IC50. The text has this: AlphaScreen (Amplified Luminescent Proximity Homogeneous Assay, ALPHA, Perkin Elmer) is a non-radioactive bead-based proximity assay technology to study biomolecular interactions in a homogenous microtiter plate format. The brand name SureFire denotes AlphaScreen assays that are adapted to quantify the phosphorylation of endogenous cellular proteins in cell lysates, by using matched antibody pairs, which consist of an anti-phospho-kinase and an anti-kinase antibody. The assay allows characterization of kinase signaling in cells as well as measurement of kinase inhibitor effects. The AlphaScreen technology provides several advantages over standard assay techniques such as ELISA, as it avoids time-consuming washing procedures and reduces plate handling. Furthermore, it is miniaturizable at least to a 384-well format and provides sensitivity down to the femtomolar range, dependent on the affinity of the antibodies included in the individual AlphaScreen SureFire assay kit. High sensitivity is reached by an intrinsic amplification mechanism, which involves production of singlet oxygen molecules. SureFire assay kits are commercially available for specific targets and include pairs of validated antibodies (PerkinElmer). This report describes common procedures applied for AlphaScreen SureFire assays and respective semi-automated steps for routine kinase inhibitor profiling in cell-based assays.
Chain of human PI3Kdelta p110 catalytic subunit (Rat-1 cells) (O00329 whole entry): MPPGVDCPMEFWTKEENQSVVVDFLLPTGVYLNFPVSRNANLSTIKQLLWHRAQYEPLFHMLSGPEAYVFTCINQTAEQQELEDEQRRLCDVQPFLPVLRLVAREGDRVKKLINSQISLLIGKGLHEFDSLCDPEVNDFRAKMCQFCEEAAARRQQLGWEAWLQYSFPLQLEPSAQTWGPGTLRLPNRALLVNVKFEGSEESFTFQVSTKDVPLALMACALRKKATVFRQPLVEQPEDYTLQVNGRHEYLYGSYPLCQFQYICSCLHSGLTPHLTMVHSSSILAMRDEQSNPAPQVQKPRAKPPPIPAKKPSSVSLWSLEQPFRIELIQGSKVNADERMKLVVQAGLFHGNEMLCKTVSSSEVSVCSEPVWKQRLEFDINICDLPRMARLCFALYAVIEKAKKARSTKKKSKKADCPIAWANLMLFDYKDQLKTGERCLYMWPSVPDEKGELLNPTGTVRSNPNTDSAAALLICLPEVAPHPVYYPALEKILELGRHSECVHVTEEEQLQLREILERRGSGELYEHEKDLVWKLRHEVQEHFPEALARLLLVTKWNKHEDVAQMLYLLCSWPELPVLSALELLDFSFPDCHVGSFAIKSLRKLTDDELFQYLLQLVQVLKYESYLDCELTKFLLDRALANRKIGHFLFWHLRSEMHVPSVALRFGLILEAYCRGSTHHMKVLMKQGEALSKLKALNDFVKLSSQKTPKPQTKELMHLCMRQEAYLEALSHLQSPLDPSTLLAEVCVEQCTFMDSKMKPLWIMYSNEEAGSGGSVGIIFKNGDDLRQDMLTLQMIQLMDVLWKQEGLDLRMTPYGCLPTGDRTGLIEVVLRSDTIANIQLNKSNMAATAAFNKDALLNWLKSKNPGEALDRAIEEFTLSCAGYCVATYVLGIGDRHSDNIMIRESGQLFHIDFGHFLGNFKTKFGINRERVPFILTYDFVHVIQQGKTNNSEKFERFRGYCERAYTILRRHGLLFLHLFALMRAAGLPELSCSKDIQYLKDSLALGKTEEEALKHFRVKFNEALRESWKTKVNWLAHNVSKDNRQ
Chain of human PI3Kdelta p110 catalytic subunit (Rat-1 cells) (Q63787 whole entry partner): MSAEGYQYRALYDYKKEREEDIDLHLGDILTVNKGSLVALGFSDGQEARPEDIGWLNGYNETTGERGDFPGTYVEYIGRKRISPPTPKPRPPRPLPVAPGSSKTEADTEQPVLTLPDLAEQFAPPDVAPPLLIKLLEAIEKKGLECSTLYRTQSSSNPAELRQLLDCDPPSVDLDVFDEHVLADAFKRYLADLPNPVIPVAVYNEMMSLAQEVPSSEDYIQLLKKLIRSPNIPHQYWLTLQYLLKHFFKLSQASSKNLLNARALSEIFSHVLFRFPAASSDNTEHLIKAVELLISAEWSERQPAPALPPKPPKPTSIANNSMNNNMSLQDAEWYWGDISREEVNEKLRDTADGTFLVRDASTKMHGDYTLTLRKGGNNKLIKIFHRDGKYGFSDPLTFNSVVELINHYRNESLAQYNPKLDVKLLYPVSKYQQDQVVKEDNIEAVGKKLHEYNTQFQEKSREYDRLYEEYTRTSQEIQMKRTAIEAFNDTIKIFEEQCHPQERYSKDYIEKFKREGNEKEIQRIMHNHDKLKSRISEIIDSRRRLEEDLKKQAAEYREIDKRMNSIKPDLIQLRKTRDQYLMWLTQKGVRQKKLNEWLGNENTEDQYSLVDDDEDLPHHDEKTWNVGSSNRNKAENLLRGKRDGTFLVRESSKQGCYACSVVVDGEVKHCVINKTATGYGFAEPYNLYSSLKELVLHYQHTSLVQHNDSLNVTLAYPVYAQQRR
The Rat-1 cell lines stably overexpressing activated PI3K class I isoforms Rat-1 pBABEpuro Myr-HA-hp110 delta (Rat-1_PI3Kdelta) and Rat-1 pBABEpuro Myr-HA-hp110alpha (Rat-1_PI3Kalpha) and Rat-1 pBABEpuro Myr-HA-hp110 beta (Rat-1_PI3beta) were prepared as described (Maira S M, Stauffer F, Brueggen J, Furet P, Schnell C, Fritsch C, Brachmann S, Chène P, de Pover A, Schoemaker K, Fabbro D, Gabriel D, Simonen M, Murphy L, Finan P, Sellers W, Garcia-Echeverria C (2008), Mol Cancer Ther. 7:1851-63 and Maira S M, Pecchi S, Brueggen J, Huh K, Schnell C, Fritsch C, Nagel T, Wiesmann M, Brachmann S, Dorsch M, Chène P, Schoemaker K, De Pover A, Menezes D, Fabbro D, Sellers W, Garcia-Echeverria C, Voliva CF (2011), Mol. Cancer Ther., accepted). All cell lines were cultivated in complete growth medium (DMEM high glucose, 10% (v/v) fetal bovine serum, 1% (v/v) MEM NEAA, 10 mM HEPES, 2 mM L-glutamine, puromycin (10 μg/mL for Rat-1_PI3Kdelta and Rat-1_PI3Kalpha, 4 ug/mL for Rat-1_PI3beta), 1% (v/v) Pen/Strep) to 90% confluency at 37° C./5% CO2/90% humidity in a humidified CO2 incubator and were split twice a week.
The following materials were used for p-AKT(5473) detection in Rat-1 cell lysates: Dulbecco's modified Eagle's medium (DMEM) high glucose (Gibco Invitrogen, Basel, Switzerland, Cat. No. 41965), Heat Inactivated Fetal Bovine Serum, Qualified (HI FBS; Gibco Invitrogen, Basel, Switzerland, Lot. No. 16140), MEM non essential amino acids (NEAA; Gibco Invitrogen, Basel, Switzerland, Cat. No. 11140), HEPES (Gibco Invitrogen, Basel, Switzerland, Cat. No. 15630), Penicillin/Streptomycin (Pen/Strep, 100x; Gibco Invitrogen, Basel, Switzerland, Cat. No. 15140-122), L-Glutamine (Gibco Invitrogen, Basel, Switzerland, Cat. No. 25030), Puromycin (Sigma Aldrich, Buchs, Switzerland, Cat. No. P9620), DMSO (MERCK, Dietikon, Switzerland, Cat. No. 8.02912.2500), H2O, MilliQ-H2O unless otherwise stated (MILLIPORE QGARDOOR1, Millipore, Zug, Switzerland), Bovine serum albumine (BSA; Sigma Aldrich, Buchs, Switzerland Cat. No. A8412), SureFire p-Akt ½ (Ser473) Assay Kit (PerkinElmer, Schwerzenbach, Switzerland, Cat. No. TGRAS50K).
The p-Akt(5473) SureFire assay measures the phosphorylation of endogenous cellular Akt ½ at Ser473 in cell lysates. Using Rat-1 cells stably expressing myr-HA-tagged versions of the human PI3Kdelta, PI3Kalpha, or PI3Kbeta p110 catalytic subunit isoforms, the assay was developed as a two-plate protocol in a 384-well format.

pIC50: −log10 of the molar value.

On to `COc1ccc([C@@H]2OC(=O)N(c3cc(-c4cnc(N)nc4C(F)(F)F)nc(N4CCOCC4)n3)[C@H]2CO)cc1` [Example 3, (4S,5S)-3-(2′-Amino-2-morpholino-4′-(trifluoromethyl)-[4,5′-bipyrimidin]-6-yl)-4-(hydroxymethyl)-5-(4-methoxyphenyl)oxazolidin-2-one], for which the pIC50 is 8.22.

As to `C[C@H]1[C@H](c2ccccc2)OC(=O)N1c1cc(-c2cnc(N)nc2C(F)(F)F)nc(N2CCOCC2)n1` [Example 5], the pIC50 was 6.92.

Consider `CC[C@H]1[C@H](c2nccs2)OC(=O)N1c1cc(-c2cnc(N)nc2C(F)(F)F)nc(N2CCOCC2)n1` [Example 7], for which the pIC50 is 6.91.

On to `CC1C(c2cccnc2)OC(=O)N1c1cc(-c2cnc(N)nc2C(F)(F)F)nc(N2CCOCC2)n1` (stereo not drawn) [Example 9], for which the pIC50 was 7.96.

Take `Nc1ncc(-c2cc(N3C(=O)O[C@@H](c4ccccc4)[C@@H]3CO)nc(N3CCOCC3)n2)c(C(F)(F)F)n1` [Example 10]: the pIC50 was 7.66.

Take `COCCOc1ccc([C@@H]2OC(=O)N(c3cc(-c4cnc(N)nc4C(F)(F)F)nc(N4CCOCC4)n3)[C@H]2CO)cc1` [Example 12]: the pIC50 is 8.40.
